Structures are written as SMILES. Several values for one entry are separate records, joined by “and”; a condition that tells them apart may be missing. Equal values may be shown once.

Series [1] has as its system ABCG2 over-expressing Ig-MXP3 cells. As to the kind of experiment: Chemoreversal assay: potentiation of mitoxantrone (MTX) killing. The class given is cell-based.
Protocol: (§1) Cells (ABCB1, Jurkat-DNR or ABCG2 Ig-MXP3) are incubated with the test compound (3 order of magnitude concentration range) over a 3-day and 7-day period in the presence of the inhibitor and chemotherapeutic (ABCB1, DNR or ABCG2 MTX), such that a cell concentration of at least 1×10^5 cells/mL is maintained. Cell viability is determined by trypan blue staining and enumeration under light microscopy. […] A chemoreversal index (Chemoreversal 50, CR50) is determined from the viability assessment. Using a similar approach, a direct cytotoxicity index (Toxic Dose 50, TD50) is determined by assessment of cell death of cells grown in media alone.
(§2) Cells (ABCB1, Jurkat-DNR or ABCG2 Ig-MXP3) were incubated with the test compound in a 3 order of magnitude concentration range over three and seven day periods in the presence of the inhibitor and chemotherapeutic (ABCB1, 100 nM DNR or ABCG2 30 nM MTX), such that a cell concentration of at least 1×10^5 cells mL^−1 was maintained. Cell viability was determined by trypan blue staining and enumeration under light microscopy. […] A chemoreversal index (Chemoreversal 50, CR50) was determined from the viability assessment. Using a similar approach, a direct cytotoxicity index (Toxic Dose 50, TD50) was determined by assessment of cell death of cells grown in media alone.
The target in series [2] is ABCB1 (Homo sapiens, UniProt P08183). As to the kind of experiment: JC-1 efflux inhibition dose response, flow cytometry, Jurkat-DNR cells. An outline of the steps: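 Jurkat-DNR cells pre-stained with 1 μM JC-1 were incubated with compound (final 50 μM to 69 nM, […]) at 1×10^6 cells/mL, rotated 30 min at 25° C. Retained JC-1 read by flow cytometry (488 nm excitation, 530/40 nm emission). Curves fitted to a four-parameter logistic.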

In series [3] the target is 50 kinases. As to the kind of experiment: Kinase profiling (KinaseSeeker, split-luciferase). The class given is biochemical. Particulars: 10 μM. On the procedure:
Since ABC transporters are ATP dependent efflux pumps and several kinase targets have been implicated in the patent literature with structurally similar scaffolds, SID 88095709 was profiled against 50 kinasesat a single concentration of 10 μM to assess promiscuity of the chemotype.^66 SID 88095709 was dissolved in DMSO and tested at a final concentration of 10 μM. Prior to initiating a profiling campaign, the compound was evaluated for false positive against split-luciferase. Profiling was done in duplicate for SID 88095709 against each kinase. The Percent Inhibition and Percent Activity Remaining arecalculated using the following equation: % Inhibition=ALUControl−ALUSample×100 ALUControl % Activity Remaining=100−% Inhibition The team has also submitted SID 88095709 and the analog SID 97301789 to the NIH National Cancer Institute to elucidate the effect of SID 88095709 on the cancer cell line panel. Discussion

The test system of series [4] is Jurkat-DNR cells. As to the kind of experiment: Direct cytotoxicity (Toxic Dose 50) without chemotherapeutic. The settings on record: Jurkat-DNR cells, inhibitor without chemotherapeutic. The procedure, abridged:
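Jurkat-DNR cells grown in media alone with compound over a 3-order-of-magnitude range for 3 and 7 days, keeping at least 1×10^5 cells/mL. Viability by trypan blue exclusion counted under light microscopy; TD50 derived from cell death.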

The subject of series [5] is Ig-MXP3 cells. Described as above. The series is classed as cell-based. The settings on record: Ig-MXP3 cells, inhibitor without chemotherapeutic.
Protocol: as §1, §2

Sequence of ABCB1 (P08183 whole entry): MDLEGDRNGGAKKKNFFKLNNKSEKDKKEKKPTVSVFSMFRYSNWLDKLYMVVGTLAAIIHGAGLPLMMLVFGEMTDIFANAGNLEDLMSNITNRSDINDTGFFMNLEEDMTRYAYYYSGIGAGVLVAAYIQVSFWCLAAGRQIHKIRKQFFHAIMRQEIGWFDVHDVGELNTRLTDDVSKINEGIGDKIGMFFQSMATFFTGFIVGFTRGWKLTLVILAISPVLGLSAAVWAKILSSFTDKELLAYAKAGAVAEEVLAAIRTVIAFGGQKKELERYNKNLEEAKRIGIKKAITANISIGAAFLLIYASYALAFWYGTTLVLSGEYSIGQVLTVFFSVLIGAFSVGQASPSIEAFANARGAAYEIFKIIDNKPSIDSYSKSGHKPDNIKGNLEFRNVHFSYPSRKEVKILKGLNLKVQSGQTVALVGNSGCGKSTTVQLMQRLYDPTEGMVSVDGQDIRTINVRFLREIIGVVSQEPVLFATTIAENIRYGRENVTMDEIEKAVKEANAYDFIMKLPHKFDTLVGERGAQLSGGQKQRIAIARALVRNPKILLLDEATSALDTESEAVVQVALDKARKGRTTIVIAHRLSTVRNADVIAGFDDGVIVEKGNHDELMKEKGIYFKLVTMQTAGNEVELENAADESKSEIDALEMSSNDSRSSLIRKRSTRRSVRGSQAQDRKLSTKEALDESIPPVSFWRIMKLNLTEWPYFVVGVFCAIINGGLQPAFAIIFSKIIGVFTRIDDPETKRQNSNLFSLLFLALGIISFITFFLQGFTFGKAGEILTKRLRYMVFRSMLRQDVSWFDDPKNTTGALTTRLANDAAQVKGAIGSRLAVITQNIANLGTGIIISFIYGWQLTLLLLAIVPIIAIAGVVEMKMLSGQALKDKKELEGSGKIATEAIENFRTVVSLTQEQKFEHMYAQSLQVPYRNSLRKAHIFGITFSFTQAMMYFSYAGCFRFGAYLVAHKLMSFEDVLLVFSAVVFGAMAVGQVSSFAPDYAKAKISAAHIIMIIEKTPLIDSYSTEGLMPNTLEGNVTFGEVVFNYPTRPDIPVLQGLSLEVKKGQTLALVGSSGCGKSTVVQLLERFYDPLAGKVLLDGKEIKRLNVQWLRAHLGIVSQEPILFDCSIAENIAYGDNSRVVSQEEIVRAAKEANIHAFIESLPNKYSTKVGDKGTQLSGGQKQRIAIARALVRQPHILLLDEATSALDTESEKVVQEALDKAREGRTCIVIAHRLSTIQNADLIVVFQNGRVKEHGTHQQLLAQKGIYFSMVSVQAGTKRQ

Turning to `O=C(c1ccoc1)N1CCN(c2cc(-c3ccco3)nc3cc(-c4ccccc4)nn23)CC1` [Compound 1, (4-(5-(furan-2-yl)-2-phenylpyrazolo[1,5-a]pyrimidin-7-yl)piperazin-1-yl)(furan-3-yl)methanone], the “selectivity in chemoreversal (cell killing assay)” value in series [1] (ABCG2 vs ABCB1) came out at 1.8 fold. Also, the EC50 in series [1] (Ig-MXP3 cells, constant 30 nM MTX, varied inhibitor dose, read-out: CR50 ABCG2) was 0.31 µM; in series [2], 4.65 µM. Moreover, the IC50 (commonly the midpoint of a concentration-inhibition curve) in series [2] (IC50 ABCB1 (efflux inhibition of JC-1 substrate), Jurkat-DNR cells over-expressing ABCB1, averages of two to four replicates) was 4.7 µM and 4.65 µM. Besides, in series [3], the “kinase inhibition profile” value is on record as “appears to not be a kinase inhibitor”. Further, the “TD50 ABCB1” value stood at 5.52 µM in series [4] and 5.5 µM in series [4] (listed as SID 88095709). Besides, the “TD50 ABCG2” value amounted to 18.30 µM in series [5] and 18.3 µM in series [5] (listed as SID 88095709).
